We go through 14 compounds from ChEMBL document CHEMBL5291721, “A preclinical secondary pharmacology resource illuminates target-adverse drug reaction associations of marketed drugs” (Nat Commun, 2023).

By AC50 is commonly meant the midpoint of the concentration-response curve, whichever way the signal moves. The low end stands for greater potency, the high end for weaker potency.

Bounds are passed on as bounds.

In assay [1] the target is T1, Corticotropin-releasing factor receptor 2 (Homo sapiens, UniProt Q13324).
T1 sequence (Q13324 whole entry): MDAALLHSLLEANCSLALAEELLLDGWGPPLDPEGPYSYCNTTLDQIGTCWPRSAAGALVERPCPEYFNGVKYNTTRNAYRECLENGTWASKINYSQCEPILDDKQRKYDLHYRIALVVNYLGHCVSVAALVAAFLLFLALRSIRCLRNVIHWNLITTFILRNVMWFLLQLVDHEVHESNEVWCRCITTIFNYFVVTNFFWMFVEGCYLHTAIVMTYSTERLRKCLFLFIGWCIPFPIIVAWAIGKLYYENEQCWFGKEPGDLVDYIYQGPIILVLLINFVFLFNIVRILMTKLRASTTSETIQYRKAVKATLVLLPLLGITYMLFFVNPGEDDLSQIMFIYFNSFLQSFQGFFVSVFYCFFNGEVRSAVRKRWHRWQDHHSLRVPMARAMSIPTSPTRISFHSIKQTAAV

The target in assay [2] is T2, Endothelin receptor type B (Homo sapiens, UniProt P24530).
T2 sequence (P24530 whole entry): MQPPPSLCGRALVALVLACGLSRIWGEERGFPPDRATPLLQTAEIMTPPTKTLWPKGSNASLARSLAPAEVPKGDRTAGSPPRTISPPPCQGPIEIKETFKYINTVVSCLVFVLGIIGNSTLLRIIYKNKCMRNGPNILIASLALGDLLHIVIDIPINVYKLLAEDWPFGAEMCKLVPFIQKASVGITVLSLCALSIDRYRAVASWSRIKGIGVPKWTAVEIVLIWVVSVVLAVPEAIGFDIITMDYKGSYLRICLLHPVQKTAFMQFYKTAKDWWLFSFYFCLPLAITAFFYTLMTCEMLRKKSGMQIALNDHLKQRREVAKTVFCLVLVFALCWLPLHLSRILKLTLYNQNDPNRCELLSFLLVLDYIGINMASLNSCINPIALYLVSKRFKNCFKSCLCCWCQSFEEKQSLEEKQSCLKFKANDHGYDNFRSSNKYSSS

Another assay concerns the target Prothrombin (Homo sapiens, UniProt P00734). Format: functional.
Assay [3] concerns the target T3, 5-hydroxytryptamine receptor 1A (Homo sapiens, UniProt P08908).
T3 sequence (P08908 whole entry): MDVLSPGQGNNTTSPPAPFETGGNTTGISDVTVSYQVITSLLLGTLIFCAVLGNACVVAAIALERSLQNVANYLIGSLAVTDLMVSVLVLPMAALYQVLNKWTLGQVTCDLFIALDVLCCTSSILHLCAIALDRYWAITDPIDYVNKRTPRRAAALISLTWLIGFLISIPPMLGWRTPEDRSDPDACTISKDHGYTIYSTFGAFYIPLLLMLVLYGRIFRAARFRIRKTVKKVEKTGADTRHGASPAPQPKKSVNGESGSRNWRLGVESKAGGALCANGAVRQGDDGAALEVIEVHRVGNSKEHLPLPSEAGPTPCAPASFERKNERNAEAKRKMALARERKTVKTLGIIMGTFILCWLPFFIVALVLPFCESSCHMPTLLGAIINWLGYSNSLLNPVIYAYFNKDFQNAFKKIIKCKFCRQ

The target in assay [4] is cGMP-inhibited 3',5'-cyclic phosphodiesterase 3A (Homo sapiens, UniProt Q14432). Format: functional.
cGMP-inhibited 3',5'-cyclic phosphodiesterase 3A, sequence (Q14432 whole entry): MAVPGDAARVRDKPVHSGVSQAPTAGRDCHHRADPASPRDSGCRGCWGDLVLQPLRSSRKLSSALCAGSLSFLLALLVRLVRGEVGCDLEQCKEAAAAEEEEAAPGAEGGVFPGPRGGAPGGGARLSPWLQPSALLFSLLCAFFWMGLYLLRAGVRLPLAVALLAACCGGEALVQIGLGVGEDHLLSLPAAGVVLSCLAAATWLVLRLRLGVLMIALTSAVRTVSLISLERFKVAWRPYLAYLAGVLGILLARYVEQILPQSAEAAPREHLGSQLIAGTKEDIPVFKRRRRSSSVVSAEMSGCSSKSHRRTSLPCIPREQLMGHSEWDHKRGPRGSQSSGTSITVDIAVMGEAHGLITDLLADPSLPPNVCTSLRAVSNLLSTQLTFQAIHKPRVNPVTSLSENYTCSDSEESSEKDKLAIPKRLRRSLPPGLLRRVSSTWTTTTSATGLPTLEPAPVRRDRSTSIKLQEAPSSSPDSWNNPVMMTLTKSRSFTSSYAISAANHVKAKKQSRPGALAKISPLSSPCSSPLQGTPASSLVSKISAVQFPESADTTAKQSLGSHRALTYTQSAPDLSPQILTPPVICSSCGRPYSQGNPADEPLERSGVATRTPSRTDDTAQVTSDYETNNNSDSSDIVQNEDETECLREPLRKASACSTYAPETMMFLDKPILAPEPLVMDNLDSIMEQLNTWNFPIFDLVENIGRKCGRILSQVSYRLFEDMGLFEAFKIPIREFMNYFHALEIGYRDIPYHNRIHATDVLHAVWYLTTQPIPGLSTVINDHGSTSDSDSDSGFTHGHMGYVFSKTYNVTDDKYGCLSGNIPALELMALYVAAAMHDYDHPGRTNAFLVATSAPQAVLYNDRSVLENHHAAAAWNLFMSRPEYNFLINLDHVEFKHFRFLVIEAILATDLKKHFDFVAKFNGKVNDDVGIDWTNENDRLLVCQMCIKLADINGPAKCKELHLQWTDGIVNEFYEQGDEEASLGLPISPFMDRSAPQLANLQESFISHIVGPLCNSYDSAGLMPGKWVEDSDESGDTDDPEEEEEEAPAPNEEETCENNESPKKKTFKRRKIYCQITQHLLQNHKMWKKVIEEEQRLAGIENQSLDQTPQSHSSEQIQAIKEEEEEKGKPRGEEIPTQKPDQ
For assay [5], the target named is Hydroxycarboxylic acid receptor 2 (Homo sapiens, UniProt Q8TDS4).
Hydroxycarboxylic acid receptor 2, sequence (Q8TDS4 whole entry): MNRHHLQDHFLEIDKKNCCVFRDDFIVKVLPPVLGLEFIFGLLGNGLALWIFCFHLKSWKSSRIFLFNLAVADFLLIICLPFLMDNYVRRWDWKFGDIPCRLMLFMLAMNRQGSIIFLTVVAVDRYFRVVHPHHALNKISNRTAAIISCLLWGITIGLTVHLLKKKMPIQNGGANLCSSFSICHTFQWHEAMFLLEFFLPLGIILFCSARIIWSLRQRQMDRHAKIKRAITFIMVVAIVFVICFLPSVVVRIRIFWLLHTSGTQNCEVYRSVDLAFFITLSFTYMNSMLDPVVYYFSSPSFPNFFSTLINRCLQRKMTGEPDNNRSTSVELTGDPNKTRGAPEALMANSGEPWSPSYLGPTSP
The target in assay [6] is T4, Muscarinic acetylcholine receptor M4 (Homo sapiens, UniProt P08173).
T4 sequence (P08173 whole entry): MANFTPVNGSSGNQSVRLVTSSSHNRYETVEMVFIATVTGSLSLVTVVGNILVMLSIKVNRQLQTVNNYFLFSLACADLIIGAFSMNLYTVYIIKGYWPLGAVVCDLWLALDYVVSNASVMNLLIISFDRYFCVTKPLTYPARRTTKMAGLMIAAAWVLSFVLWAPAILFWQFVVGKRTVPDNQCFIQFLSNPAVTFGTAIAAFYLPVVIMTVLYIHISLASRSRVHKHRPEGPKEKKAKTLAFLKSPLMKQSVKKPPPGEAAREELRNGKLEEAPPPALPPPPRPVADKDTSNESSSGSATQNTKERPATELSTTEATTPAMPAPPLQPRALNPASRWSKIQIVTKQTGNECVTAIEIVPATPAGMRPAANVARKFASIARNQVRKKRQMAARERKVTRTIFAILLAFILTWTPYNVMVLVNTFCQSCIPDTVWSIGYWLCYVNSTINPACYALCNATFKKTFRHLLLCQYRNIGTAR

Assay [7] deals with T5, Muscarinic acetylcholine receptor M5 (Homo sapiens, UniProt P08912).
T5 sequence (P08912 whole entry): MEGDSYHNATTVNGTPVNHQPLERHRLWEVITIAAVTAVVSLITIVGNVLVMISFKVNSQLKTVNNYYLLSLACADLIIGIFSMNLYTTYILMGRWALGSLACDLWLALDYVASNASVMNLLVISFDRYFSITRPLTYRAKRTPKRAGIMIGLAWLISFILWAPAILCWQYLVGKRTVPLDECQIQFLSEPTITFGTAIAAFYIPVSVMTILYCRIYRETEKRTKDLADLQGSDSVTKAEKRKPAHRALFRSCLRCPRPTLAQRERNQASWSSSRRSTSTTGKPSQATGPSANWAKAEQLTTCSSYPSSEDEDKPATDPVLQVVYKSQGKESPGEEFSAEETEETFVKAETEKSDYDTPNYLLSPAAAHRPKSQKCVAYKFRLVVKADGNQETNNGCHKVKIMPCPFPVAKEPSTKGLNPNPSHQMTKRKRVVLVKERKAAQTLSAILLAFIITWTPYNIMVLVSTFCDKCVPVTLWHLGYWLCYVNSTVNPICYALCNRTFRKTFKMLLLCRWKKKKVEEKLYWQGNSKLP

Assay [8] deals with 5-hydroxytryptamine receptor 5A (Homo sapiens, UniProt P47898).
5-hydroxytryptamine receptor 5A, sequence (P47898 whole entry): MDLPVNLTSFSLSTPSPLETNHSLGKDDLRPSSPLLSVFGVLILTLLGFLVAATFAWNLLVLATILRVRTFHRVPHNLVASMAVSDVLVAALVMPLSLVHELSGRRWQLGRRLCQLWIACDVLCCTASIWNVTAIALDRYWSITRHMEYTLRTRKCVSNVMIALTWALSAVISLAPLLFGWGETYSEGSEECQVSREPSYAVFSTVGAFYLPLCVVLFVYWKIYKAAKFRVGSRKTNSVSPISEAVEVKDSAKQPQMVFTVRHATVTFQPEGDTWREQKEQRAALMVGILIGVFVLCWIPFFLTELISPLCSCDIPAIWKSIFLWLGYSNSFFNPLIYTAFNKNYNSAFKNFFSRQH
Note: assay procedure not described here.

For the compound `NCCCC(O)(P(=O)(O)O)P(=O)(O)O` [ALENDRONIC ACID], the AC50 (in assay [1]; in assay [2]; at Prothrombin; in assay [3]; in assay [4]) was more than 30 µM in each case.
For `CCCC(C)(COC(N)=O)COC(=O)NC(C)C` (centres undefined) [CARISOPRODOL], the AC50 in [1] was more than 30 µM; in assay [2] it was more than 30 µM; in [5], more than 10 µM.
In the case of `N[C@H](Cc1cc(I)c(Oc2cc(I)c(O)c(I)c2)c(I)c1)C(=O)O` [DEXTROTHYROXINE], the AC50 in assay [1] and in assay [2] was more than 30 µM in each case.
Regarding `CC(=O)OCC(CCn1cnc2cnc(N)nc21)COC(C)=O` [FAMCICLOVIR], the AC50 is more than 30 µM in assay [1], more than 30 µM in assay [2] and more than 10 µM in assay [5].
On to `O=C(O)c1ccccc1Nc1cccc(C(F)(F)F)c1` [FLUFENAMIC ACID], for which the AC50 in [1] and in assay [2] was more than 30 µM each time.
As to `COC1=C(OC)C(=O)C(CCCCCCCCCCO)=C(C)C1=O` [IDEBENONE], the AC50 was more than 10 µM in assay [6]; more than 10 µM in assay [7]; more than 30 µM in assay [1]; more than 30 µM in assay [2]; more than 10 µM in [8].
On to `O=C1CN=C(c2ccccc2)c2cc(Cl)ccc2N1` [NORDAZEPAM], for which the AC50 is more than 10 µM in assay [6]; more than 10 µM in assay [7]; more than 30 µM in assay [1]; more than 30 µM in [2]; more than 10 µM in [8].
`CC(CCc1ccccc1)NC(C)C(O)c1ccc(O)cc1` (centres undefined) [NYLIDRIN]: the concentration at half-maximal activity (AC50) in assay [6] was more than 10 µM; in assay [7], more than 10 µM; in assay [1], more than 30 µM; in assay [2], more than 30 µM; in assay [8] it was more than 10 µM.
As to `O=C1Nc2ccc(Cl)cc2C(c2ccccc2)=NC1O` (centres undefined) [OXAZEPAM], the AC50 in [6] is more than 10 µM; in [7], more than 10 µM; in assay [1] it was more than 30 µM; in [2], more than 30 µM; in [8], more than 10 µM.
Turning to `C[n+]1ccccc1/C=N/O` [PRALIDOXIME], the AC50 (at Prothrombin; in assay [3]; in [4]) was more than 30 µM in each case.
With `CC(C)CC(N(C)C)C1(c2ccc(Cl)cc2)CCC1` (centres undefined) [SIBUTRAMINE], the AC50 in [1] was more than 30 µM; in [2] it was more than 30 µM; in assay [5] it was more than 10 µM.
For `[H]/N=C(/N)N[C@H]1[C@H](O)[C@@H](O)[C@H](O[C@@H]2O[C@@H](C)[C@](O)(C=O)[C@H]2O[C@@H]2O[C@@H](CO)[C@H](O)[C@@H](O)[C@@H]2NC)[C@@H](N/C(N)=N\[H])[C@@H]1O` [STREPTOMYCIN], the AC50 in assay [1] and in assay [2] was more than 30 µM in each case.
With `N#C[C@@H]1CCCN1C(=O)CNC12CC3CC(CC(O)(C3)C1)C2` [VILDAGLIPTIN], the AC50 in assay [6], in assay [7] and in assay [8] was more than 10 µM throughout.
Consider COLISTIN, for which the AC50 (at Prothrombin; in assay [3]; in assay [4]) was more than 30 µM each time.
